In article PMC7915588, “Polyphyllin D Shows Anticancer Effect through a Selective Inhibition of Src Homology Region 2-Containing Protein Tyrosine Phosphatase-2 (SHP2)” (Molecules, 2021):

Legend:
Test in all cases: biochemical
Parameters in all cases: Fluorogenic phosphatase assay, DiFMUP hydrolysis by recombinant PTPs, initial velocity, Ex/Em 355/460 nm
Details in all cases: read-out: Inhibition by 20 µM polyphyllin D (%)
PTPN1 (PTP1B) = biological target: T1, PTPN1 (PTP1B) (Homo sapiens, UniProt P18031)
T1 construct: 1-299
T1 sequence (P18031 1-435): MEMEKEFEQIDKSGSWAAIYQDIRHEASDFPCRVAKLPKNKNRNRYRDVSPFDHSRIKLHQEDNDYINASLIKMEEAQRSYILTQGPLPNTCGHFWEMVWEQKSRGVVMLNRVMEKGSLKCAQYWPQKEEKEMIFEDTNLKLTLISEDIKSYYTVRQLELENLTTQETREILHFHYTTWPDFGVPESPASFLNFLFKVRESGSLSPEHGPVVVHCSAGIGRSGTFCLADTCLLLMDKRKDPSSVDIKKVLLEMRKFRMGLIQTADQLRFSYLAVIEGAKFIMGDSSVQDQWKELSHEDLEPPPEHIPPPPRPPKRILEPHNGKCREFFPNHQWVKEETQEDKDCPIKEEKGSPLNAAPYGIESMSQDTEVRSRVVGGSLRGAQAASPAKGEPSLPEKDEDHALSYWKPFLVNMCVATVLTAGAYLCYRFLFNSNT

PTPN22 (LYP) = biological target: T2, PTPN22 (LYP) (Homo sapiens, UniProt Q9Y2R2)
T2 construct: 1-326
T2 sequence (Q9Y2R2 1-807): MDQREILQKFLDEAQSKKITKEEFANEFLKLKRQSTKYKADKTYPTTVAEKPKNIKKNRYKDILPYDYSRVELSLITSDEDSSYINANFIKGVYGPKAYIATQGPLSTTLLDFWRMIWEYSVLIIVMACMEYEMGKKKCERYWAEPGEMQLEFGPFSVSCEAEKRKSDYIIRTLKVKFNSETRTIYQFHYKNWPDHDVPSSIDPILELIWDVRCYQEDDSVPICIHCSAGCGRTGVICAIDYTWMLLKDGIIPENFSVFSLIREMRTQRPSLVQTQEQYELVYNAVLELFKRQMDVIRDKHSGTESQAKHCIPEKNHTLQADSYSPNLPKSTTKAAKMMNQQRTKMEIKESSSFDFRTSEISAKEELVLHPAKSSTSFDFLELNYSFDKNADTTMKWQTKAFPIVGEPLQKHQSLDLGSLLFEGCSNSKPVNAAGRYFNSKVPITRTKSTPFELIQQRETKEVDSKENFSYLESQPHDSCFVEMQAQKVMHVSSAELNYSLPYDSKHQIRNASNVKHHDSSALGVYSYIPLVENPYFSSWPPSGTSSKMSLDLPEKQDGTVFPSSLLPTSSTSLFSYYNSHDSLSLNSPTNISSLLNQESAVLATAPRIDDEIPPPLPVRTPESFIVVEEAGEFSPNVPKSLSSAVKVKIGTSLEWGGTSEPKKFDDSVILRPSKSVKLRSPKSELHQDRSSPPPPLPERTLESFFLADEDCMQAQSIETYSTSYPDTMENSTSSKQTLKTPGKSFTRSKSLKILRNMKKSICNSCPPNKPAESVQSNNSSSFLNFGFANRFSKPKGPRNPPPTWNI

SHP1 = biological target: T3, SHP1 (Homo sapiens, UniProt P29350)
T3 construct: gene PTPN6
T3 sequence (P29350 whole entry): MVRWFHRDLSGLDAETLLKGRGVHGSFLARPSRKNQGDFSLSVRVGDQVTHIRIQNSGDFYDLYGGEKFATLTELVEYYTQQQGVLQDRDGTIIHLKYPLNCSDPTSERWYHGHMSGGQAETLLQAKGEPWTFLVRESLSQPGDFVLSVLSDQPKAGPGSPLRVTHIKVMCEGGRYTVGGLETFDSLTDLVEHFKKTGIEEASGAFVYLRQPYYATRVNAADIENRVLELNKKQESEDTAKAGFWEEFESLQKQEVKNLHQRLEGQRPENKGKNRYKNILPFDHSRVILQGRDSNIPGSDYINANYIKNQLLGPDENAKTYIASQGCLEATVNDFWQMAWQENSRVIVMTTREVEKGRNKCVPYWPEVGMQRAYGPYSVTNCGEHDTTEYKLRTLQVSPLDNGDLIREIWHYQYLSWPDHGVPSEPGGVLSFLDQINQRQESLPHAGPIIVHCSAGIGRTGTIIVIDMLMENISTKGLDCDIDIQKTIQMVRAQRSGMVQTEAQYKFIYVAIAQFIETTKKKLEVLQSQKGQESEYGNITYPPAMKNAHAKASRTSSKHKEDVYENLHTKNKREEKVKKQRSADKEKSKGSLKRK

PTPN18 (PTP-HSCF) = biological target: T4, PTPN18 (PTP-HSCF) (Homo sapiens, UniProt Q99952)
T4 construct: 1-300
T4 sequence (Q99952 1-460): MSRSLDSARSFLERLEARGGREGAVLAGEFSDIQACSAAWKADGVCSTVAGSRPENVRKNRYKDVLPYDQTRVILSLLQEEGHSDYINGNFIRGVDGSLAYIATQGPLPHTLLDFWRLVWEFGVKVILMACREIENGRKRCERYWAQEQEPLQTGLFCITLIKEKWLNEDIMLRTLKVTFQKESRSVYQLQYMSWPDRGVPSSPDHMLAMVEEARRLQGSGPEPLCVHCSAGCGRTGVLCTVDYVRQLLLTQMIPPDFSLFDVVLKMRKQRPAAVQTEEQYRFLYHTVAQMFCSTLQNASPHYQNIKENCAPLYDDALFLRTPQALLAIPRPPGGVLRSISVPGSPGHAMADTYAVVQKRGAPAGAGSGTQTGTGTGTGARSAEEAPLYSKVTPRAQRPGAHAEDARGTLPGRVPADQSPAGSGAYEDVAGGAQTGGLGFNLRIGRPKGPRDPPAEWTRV

Q: `C[C@@H]1CC[C@@]2(OC1)O[C@H]1C[C@H]3[C@@H]4CC=C5C[C@@H](O[C@@H]6O[C@H](CO)[C@@H](O[C@@H]7O[C@@H](CO)[C@H](O)[C@H]7O)[C@H](O)[C@H]6O[C@@H]6O[C@@H](C)[C@H](O)[C@@H](O)[C@H]6O)CC[C@]5(C)[C@H]4CC[C@]3(C)[C@H]1[C@@H]2C` [polyphyllin D] was tested. Which inhibition at 20 µM (PTPN1 (PTP1B)) did it give?
A: 0%

Q: What about the inhibition at 20 µM (PTPN22 (LYP)) of the same compound?
A: 0.1%

Q: What about the inhibition at 20 µM (SHP1) of the same compound?
A: 0.1%

Q: And the inhibition at 20 µM (PTPN18 (PTP-HSCF))?
A: 14.2%
